What all share (assay type): biochemical
The target of assay [1] is 320 wild-type protein kinases (Homo sapiens, UniProt P43405). Conditions: kinase SYK aa1-635, singlicate. The text has this:
(§1) Table S4. Profiling of two compounds at two concentrations against 320 wild-type protein kinases; singlicate measurement; Residual activities (% of control).

The target of assay [2] is 320 wild-type protein kinases (Homo sapiens, UniProt P09769). Conditions: FGR, singlicate.
Text: as §1

In assay [3] the target is T1, 320 wild-type protein kinases (Homo sapiens, UniProt Q8TD08).
T1 sequence (Q8TD08 1-544): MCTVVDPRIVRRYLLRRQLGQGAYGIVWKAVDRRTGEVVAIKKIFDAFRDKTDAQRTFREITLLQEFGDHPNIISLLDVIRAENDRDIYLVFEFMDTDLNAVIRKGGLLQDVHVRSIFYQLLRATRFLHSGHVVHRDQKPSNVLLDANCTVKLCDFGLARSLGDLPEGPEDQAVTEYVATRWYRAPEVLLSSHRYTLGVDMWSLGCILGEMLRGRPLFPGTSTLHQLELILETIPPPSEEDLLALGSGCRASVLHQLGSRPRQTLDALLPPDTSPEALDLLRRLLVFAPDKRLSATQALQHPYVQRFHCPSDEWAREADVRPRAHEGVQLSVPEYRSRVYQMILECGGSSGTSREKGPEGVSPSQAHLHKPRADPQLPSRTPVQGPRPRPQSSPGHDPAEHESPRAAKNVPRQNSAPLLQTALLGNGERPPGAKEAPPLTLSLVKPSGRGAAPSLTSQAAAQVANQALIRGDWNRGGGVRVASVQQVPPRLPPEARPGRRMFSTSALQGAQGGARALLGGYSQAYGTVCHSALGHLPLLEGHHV
Conditions: singlicate.
Text: as §1

The target in assay [4] is 320 wild-type protein kinases (Homo sapiens, UniProt P49841). Conditions: GSK3-beta, singlicate.
Text: as §1

Assay [5] deals with T2, 320 wild-type protein kinases (Homo sapiens, UniProt P21709).
T2 sequence (P21709 26-976): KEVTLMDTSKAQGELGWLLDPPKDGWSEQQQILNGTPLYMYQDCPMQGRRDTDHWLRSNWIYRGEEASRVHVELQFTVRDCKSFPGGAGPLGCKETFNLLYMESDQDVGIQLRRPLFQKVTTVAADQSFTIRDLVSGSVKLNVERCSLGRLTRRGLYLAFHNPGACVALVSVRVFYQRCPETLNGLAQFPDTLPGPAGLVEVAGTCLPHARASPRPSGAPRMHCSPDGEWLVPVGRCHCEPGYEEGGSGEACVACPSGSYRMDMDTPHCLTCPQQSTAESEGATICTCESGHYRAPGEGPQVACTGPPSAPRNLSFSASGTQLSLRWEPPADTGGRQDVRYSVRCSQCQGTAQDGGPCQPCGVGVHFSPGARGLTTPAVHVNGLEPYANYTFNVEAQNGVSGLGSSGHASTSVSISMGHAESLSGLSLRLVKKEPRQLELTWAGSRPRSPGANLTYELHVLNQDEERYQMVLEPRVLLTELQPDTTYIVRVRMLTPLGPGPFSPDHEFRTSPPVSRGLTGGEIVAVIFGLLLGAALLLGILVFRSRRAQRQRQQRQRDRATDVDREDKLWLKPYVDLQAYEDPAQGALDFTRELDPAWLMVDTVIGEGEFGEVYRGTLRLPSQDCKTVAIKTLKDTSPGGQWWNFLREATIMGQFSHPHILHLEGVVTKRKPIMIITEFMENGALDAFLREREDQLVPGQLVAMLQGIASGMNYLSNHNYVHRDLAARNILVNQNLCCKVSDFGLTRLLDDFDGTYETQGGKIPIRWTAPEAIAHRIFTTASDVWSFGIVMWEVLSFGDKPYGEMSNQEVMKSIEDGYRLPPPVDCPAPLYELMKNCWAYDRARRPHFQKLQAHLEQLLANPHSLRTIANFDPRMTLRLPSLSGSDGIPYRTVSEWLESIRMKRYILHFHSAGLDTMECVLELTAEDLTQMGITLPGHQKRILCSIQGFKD
Conditions: singlicate.
Text: as §1

The target of assay [6] is 320 wild-type protein kinases (Homo sapiens, UniProt O60674). Conditions: singlicate.
Text: as §1

The target of assay [7] is T3, 320 wild-type protein kinases (Homo sapiens, UniProt Q8TD19).
T3 sequence (Q8TD19 1-979): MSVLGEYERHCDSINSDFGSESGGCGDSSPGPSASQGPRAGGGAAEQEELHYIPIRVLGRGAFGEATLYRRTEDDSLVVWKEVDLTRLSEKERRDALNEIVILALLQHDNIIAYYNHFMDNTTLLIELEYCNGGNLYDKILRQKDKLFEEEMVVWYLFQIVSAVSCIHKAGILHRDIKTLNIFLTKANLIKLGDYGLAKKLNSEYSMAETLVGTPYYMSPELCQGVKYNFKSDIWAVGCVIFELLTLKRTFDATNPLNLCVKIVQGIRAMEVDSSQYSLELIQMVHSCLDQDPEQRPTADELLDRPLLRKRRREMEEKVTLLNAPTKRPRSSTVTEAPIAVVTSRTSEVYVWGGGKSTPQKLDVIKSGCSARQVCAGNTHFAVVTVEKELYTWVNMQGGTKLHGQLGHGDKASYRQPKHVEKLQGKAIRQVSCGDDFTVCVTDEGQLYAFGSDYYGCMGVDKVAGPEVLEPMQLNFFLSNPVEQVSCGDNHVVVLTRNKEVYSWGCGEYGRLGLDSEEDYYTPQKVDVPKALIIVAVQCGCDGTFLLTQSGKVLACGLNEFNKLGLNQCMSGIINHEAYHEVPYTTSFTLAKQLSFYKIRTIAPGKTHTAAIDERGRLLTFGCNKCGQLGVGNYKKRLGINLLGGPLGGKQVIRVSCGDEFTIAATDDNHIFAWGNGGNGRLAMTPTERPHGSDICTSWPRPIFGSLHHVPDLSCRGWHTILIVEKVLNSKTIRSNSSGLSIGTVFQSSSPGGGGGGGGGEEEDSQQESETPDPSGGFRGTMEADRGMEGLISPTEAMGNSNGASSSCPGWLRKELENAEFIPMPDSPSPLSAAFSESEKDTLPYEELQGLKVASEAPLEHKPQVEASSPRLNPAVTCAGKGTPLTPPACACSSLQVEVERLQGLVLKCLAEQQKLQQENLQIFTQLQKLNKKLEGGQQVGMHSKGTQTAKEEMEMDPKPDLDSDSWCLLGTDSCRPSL
Conditions: singlicate.
Text: as §1

Where two headings read alike, the source gives them in different places.

320 wild-type protein kinases (Homo sapiens, UniProt O60674), sequence (O60674 whole entry): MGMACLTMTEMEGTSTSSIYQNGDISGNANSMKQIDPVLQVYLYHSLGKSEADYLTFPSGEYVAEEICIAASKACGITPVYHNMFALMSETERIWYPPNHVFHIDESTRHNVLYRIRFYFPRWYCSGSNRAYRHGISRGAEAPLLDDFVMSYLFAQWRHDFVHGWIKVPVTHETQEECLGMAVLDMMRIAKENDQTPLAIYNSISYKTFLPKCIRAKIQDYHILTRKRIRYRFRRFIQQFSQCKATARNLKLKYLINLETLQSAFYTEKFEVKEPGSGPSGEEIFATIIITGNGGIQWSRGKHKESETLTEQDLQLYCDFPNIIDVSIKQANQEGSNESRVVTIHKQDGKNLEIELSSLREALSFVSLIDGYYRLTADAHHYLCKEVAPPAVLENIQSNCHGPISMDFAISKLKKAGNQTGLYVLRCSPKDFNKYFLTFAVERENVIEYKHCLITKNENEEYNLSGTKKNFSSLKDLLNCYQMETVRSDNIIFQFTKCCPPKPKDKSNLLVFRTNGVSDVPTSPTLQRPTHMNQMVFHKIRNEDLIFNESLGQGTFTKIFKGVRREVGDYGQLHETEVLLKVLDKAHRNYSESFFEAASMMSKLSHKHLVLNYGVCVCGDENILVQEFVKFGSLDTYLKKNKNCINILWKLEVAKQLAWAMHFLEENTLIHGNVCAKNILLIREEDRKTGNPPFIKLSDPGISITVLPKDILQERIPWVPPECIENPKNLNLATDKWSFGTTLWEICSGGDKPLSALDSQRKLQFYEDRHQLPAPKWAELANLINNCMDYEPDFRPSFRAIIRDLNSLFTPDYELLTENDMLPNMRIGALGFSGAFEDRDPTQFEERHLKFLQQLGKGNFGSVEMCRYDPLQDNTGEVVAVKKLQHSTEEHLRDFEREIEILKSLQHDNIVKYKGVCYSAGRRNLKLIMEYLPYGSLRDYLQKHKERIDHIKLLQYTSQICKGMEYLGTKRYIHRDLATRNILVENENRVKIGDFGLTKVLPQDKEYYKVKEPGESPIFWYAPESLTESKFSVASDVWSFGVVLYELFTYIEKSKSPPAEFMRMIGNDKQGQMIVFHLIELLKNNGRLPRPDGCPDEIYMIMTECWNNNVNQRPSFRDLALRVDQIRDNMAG
320 wild-type protein kinases (Homo sapiens, UniProt P49841), sequence (P49841 whole entry): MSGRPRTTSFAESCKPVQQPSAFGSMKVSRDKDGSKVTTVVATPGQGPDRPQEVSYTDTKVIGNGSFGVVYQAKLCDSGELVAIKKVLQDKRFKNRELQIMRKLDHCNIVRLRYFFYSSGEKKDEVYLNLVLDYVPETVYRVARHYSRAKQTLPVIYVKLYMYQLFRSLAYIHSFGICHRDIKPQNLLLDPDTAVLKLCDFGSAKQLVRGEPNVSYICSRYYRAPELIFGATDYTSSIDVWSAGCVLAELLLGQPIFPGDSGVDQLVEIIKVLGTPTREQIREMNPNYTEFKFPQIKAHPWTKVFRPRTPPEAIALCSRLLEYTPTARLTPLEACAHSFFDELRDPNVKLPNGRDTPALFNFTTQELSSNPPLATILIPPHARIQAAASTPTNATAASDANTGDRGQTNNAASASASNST
320 wild-type protein kinases (Homo sapiens, UniProt P09769), sequence (P09769 whole entry): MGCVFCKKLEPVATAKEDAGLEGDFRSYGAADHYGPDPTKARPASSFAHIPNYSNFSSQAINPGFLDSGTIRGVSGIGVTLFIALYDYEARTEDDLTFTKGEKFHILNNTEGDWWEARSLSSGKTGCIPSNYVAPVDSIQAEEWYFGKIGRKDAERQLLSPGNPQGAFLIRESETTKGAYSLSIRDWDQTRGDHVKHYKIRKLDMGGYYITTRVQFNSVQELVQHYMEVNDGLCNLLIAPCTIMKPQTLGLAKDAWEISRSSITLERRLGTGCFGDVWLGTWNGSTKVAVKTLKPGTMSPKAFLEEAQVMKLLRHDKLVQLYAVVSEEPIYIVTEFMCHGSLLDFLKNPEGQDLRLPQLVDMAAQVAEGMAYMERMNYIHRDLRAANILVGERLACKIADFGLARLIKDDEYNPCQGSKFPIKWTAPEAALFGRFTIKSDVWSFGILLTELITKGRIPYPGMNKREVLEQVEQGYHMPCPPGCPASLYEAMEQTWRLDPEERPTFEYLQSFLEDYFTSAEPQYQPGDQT

In the case of `C#Cc1cc(Nc2ncnc3cc(I)ccc23)ccc1Cl` [Compound 41], the “Residual activity, SYK aa1-635” value in assay [1] (assay conc. 1.0E-06 M) and in assay [1] (assay conc. 1.0E-07 M) was 94 % of control throughout. In addition, the Residual activity is 114 % of control in assay [2] (1.0E-06 M); 129 % of control in assay [2] (1.0E-07 M); 96 % of control in assay [3] (ERK7, 1.0E-06 M); 94 % of control in assay [3] (ERK7, 1.0E-07 M); 84 % of control in assay [4] (1.0E-06 M); 96 % of control in assay [4] (1.0E-07 M). In addition, the Residual activity was 78 % of control in assay [5] (EPHA1, 1.0E-06 M); 106 % of control in assay [5] (EPHA1, 1.0E-07 M); 98 % of control in assay [6] (JAK2, 1.0E-06 M); 105 % of control in assay [6] (JAK2, 1.0E-07 M); 115 % of control in assay [7] (NEK9, 1.0E-06 M); 134 % of control in assay [7] (NEK9, 1.0E-07 M).

Consider `C#Cc1cc(Nc2ncnc3cc(OC)c(OC)cc23)ccc1Cl` [Compound 45], for which the entries for the “Residual activity, SYK aa1-635” value in assay [1] (assay conc. 1.0E-06 M) and in assay [1] (assay conc. 1.0E-07 M) were 104 % of control and 105 % of control, respectively. Also, the Residual activity in assay [2] (1.0E-06 M) is given as 94 % of control; in assay [2] (1.0E-07 M), 125 % of control; in assay [3] (ERK7, 1.0E-06 M) it was 90 % of control; in assay [3] (ERK7, 1.0E-07 M) it was 104 % of control; in assay [4] (1.0E-06 M) it was 85 % of control; in assay [4] (1.0E-07 M), 84 % of control. In addition, the Residual activity in assay [5] (EPHA1, 1.0E-06 M) is 80 % of control; in assay [5] (EPHA1, 1.0E-07 M) it was 91 % of control; in assay [6] (JAK2, 1.0E-06 M), 92 % of control; in assay [6] (JAK2, 1.0E-07 M), 102 % of control; in assay [7] (NEK9, 1.0E-06 M) it was 91 % of control; in assay [7] (NEK9, 1.0E-07 M), 111 % of control.

Source of the values: publication PMC9329436, “Optimization of the 4-anilinoquin(az)oline scaffold as epidermal growth factor receptor (EGFR) inhibitors for chordoma utilizing a toxicology profiling assay platform” (Scientific Reports, 2022).
